The Kinase Knowledgebase extract (Sharma et al. 2016)

Each compound was assayed against EGFR (UniProt P00533). Conditions: her-14.
EGFR, sequence (P00533 whole entry, looked up): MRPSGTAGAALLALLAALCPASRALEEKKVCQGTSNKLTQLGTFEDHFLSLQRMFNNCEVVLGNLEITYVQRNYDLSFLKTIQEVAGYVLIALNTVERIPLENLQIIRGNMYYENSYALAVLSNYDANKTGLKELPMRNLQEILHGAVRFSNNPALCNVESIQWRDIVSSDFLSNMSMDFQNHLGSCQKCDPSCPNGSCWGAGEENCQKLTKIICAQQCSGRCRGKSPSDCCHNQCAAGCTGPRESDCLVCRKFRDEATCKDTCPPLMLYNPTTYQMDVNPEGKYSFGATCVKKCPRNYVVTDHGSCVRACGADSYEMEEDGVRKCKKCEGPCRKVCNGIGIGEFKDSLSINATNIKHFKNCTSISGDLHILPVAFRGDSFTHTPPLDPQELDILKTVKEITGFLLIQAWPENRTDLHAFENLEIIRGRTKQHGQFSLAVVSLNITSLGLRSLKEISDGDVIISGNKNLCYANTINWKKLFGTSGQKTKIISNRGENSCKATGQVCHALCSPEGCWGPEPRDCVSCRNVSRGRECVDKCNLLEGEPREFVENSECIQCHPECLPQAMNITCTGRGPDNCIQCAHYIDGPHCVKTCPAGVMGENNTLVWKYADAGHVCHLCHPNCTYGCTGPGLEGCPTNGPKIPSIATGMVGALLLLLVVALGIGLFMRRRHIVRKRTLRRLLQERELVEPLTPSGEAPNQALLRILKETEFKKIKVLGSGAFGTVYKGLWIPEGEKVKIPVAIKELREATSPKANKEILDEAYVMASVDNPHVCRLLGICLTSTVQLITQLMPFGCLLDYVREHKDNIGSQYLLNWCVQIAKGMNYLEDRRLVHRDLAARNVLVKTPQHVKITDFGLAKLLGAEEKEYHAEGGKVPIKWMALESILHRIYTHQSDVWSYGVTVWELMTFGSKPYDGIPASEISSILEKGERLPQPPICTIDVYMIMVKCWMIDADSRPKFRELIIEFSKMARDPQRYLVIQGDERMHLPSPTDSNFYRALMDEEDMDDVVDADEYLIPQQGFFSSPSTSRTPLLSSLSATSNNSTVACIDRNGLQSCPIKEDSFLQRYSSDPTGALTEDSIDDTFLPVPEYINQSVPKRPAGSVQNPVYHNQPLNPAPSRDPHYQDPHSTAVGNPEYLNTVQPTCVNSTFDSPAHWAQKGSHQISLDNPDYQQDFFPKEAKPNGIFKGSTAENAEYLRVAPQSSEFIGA

| SMILES | IC50 [µM] |
| --- | --- |
| N#C/C(=C\c1ccc(O)c(O)c1)C(=O)NC1CCC(CC2CCC(NC(=O)/C(C#N)=C/c3ccc(O)c(O)c3)CC2)CC1 (centres undefined) | 20.3 |
| N#C/C(=C\c1ccc(O)c(O)c1)C(=O)NCCCCCCNC(=O)/C(C#N)=C/c1ccc(O)c(O)c1 | 5 |
| COc1cc(/C=C(\C#N)C(=O)NCCCCNC(=O)/C(C#N)=C/c2cc(Br)c(O)c(OC)c2)cc(Br)c1O | 3 |
| N#C/C(=C\c1ccc(O)c(O)c1)C(=O)NCCCCCCCCCCNC(=O)/C(C#N)=C/c1ccc(O)c(O)c1 | 25 |
| N#C/C(=C\c1ccc(O)c(O)c1)C(=O)NCC1CCCC(CNC(=O)/C(C#N)=C/c2ccc(O)c(O)c2)C1 (centres undefined) | 12.5 |
| N#C/C(=C\c1ccc(O)c(O)c1)C(=O)NCCCCCNC(=O)/C(C#N)=C/c1ccc(O)c(O)c1 | 9 |
| N#C/C(=C\c1ccc(O)c(O)c1)C(=O)NCCCN1CCN(CCCNC(=O)/C(C#N)=C/c2ccc(O)c(O)c2)CC1 | 7 |
| N#C/C(=C\c1cc(O)c(O)c(O)c1)C(=O)NCCCCNC(=O)/C(C#N)=C/c1cc(O)c(O)c(O)c1 | 5 |
| N#C/C(=C\c1ccc(O)c(O)c1)C(=O)NC1CCCCC1NC(=O)/C(C#N)=C/c1ccc(O)c(O)c1 (centres undefined) | 4 |
| COc1cc(/C=C(\C#N)C(=O)NCCCCNC(=O)/C(C#N)=C/c2cc(OC)c(O)c([N+](=O)[O-])c2)cc([N+](=O)[O-])c1O | > 80 |
| N#C/C(=C\c1cc(O)c(O)c(Br)c1)C(=O)NCCCNC(=O)/C(C#N)=C/c1cc(O)c(O)c(Br)c1 | 7.3 |
| N#C/C(=C\c1ccc(O)c(O)c1)C(=O)NCc1cccc(CNC(=O)/C(C#N)=C/c2ccc(O)c(O)c2)c1 | 6 |

More lines, in order of falling IC50, values ahead:

| IC50 [µM] | SMILES |
| --- | --- |
| 35 | N#C/C(=C\c1cc(O)c(O)c([N+](=O)[O-])c1)C(=O)NCCCNC(=O)/C(C#N)=C/c1cc(O)c(O)c([N+](=O)[O-])c1 |
| 10 | N#C/C(=C\c1ccc(O)c(O)c1)C(=O)N1CCN(C(=O)/C(C#N)=C/c2ccc(O)c(O)c2)CC1 |
| 10 | N#C/C(=C\c1ccc(O)c(O)c1)C(=O)NCCNC(=O)/C(C#N)=C/c1ccc(O)c(O)c1 |
| 6.2 | N#C/C(=C\c1ccc(O)c(O)c1)C(=O)NCCN1CCN(C(=O)/C(C#N)=C/c2ccc(O)c(O)c2)CC1 |
| 5.8 | N#C/C(=C\c1ccc(O)c(O)c1)C(=O)NCN1CCN(C(=O)/C(C#N)=C/c2ccc(O)c(O)c2)CC1 |
| 5 | N#C/C(=C\c1ccc(O)c(O)c1)C(=O)NCCCCNC(=O)/C(C#N)=C/c1ccc(O)c(O)c1 |
| 2 | N#C/C(=C\c1ccc(O)c(O)c1)S(=O)(=O)/C(C#N)=C/c1ccc(O)c(O)c1 |
